Several values for one entry are separate records, joined by “and”; a condition that tells them apart may be missing. Identical values can stand only once.
Test system: Hepatitis B virus (HBV) genotype C
Experiment: HBV DNA content in culture supernatants of HBV-infected PXB hepatocytes, quantitative PCR with TaqMan probe
Type: cell-based, human hepatitis B virus
Settings: for DNA content of HBV in the culture supernatants: PXB hepatocytes, replicates No. 1-3
Procedure: PXB hepatocytes prepared from “PXB-Mouse (registered trademark)” (manufactured by PhoenixBio) were used as test samples to examine the effect of a change in virus load by adding 5-ALA or the like to a medium. […] Therefore, PXB-Mouse is utilized as a human in vivo prediction model of hepatitis virus infections in pharmacokinetic studies.
Hepatitis B virus (HBV) genotype C was suspended in dHCGM medium (DMEM+10% FBS, 44 mM NaHCO3, 15 μg/mL L-proline, 0.25 μg/mL insulin, 50 […], 5 ng/mL EGF, 0.1 mM Asc-2P, 2% DMSO) containing 4% polyethylene glycol in the virus load of 2×10^6 per well to give 250 μL/well of a HBV infection medium. The sequence of HBV genotype C is disclosed in a public data bank such as GenBank and the accession number is AB246345.1.
5-ALA and sodium ferrous citrate (SFC) were blended in dHCGM medium at the concentrations shown in Table 1 below to prepare 250 μL each of test media. As a positive control medium, a medium prepared by dissolving 2.5 nM entecavir (manufactured by Santa Cruz Biotechnology, Inc.) in dHCGM medium was used.
PXB hepatocytes, which are primary cultured liver cells isolated by a two-step collagenase perfusion procedure (Yamasaki C, et al. Drug Metab Pharmacokinet. 2010, 25:539-550.) from 12- to 16-week-old PXB mice having a body weight of 11 g or more, were suspended in Dulbecco's modified Eagle's medium (DMEM) with 10% fetal bovine serum (FBS) (DMEM+10% FBS) containing 100 IU/mL penicillin G, 100 μg/mL streptomycin and 20 mM HEPES, seeded in a 24-well plate coated with type I collagen at a density of 4×10^5 cells/well, and incubated at 37° C. under 5% CO2. The next day, the medium was removed, and 500 μL of DMEM+10% FBS was then added to each well. Thereafter, the medium was removed again, 250 μL of the above-mentioned HBV infection medium or a non-infection medium and 250 μL each of the above-mentioned test medium were added to each well to provide 500 μL each of evaluation media. The evaluation media were incubated at 37° C. under 5% CO2 for 20 to 28 hours. On day 1, 2, 7, 12 and 17 after HBV virus infection, the media were replaced by 500 μL each of the above-mentioned evaluation media. On day 12, 17 and 22 after the virus infection, culture supernatants were collected and the DNA content of HBV in the supernatants was determined by a quantitative PCR assay with TaqMan probe. The incubation period after the virus infection was 22 days. The results are shown in the following Tables 2 and 3 and the graph of FIG. 1. The ordinate of FIG. 1 indicates the DNA content of HBV in the culture supernatants.

Question: How did the “DNA content of HBV in the culture supernatants” value (from here on “DNA content of HBV”) (ALA 1 mM, day 12 after virus infection) turn out when NCC(=O)CCC(=O)O [ALA, 5-aminolevulinic acid] was run?
Answer: 6.0 log copies/mL and 6.1 log copies/mL and 5.8 log copies/mL

Question: And the “DNA content of HBV” value (ALA 1 mM, day 17 after virus infection)?
Answer: 6.0 log copies/mL (2×) and 5.8 log copies/mL

Question: What about the “DNA content of HBV” value (ALA 1 mM, day 22 after virus infection) of the same compound?
Answer: 6.1 log copies/mL and 5.9 log copies/mL and 6.0 log copies/mL

Question: How did the “DNA content of HBV” value (ETV 2.5 nM (positive control), day 12 after virus infection) turn out when C=C1[C@H](CO)[C@@H](O)C[C@@H]1n1cnc2c(=O)[nH]c(N)nc21 [ETV, entecavir, reference compound] was run?
Answer: 4.4 log copies/mL

Question: And the “DNA content of HBV” value (ETV 2.5 nM (positive control), day 17 after virus infection)?
Answer: 4.2 log copies/mL and 4.8 log copies/mL and 4.1 log copies/mL

Question: What about the “DNA content of HBV” value (ETV 2.5 nM (positive control), day 22 after virus infection) of the same compound?
Answer: 4.4 log copies/mL and 4.0 log copies/mL and 3.9 log copies/mL

Question: How did the “DNA content of HBV” value (SFC 0.5 mM, day 12 after virus infection) turn out when sodium ferrous citrate [SFC] was run?
Answer: 6.1 log copies/mL (2×) and 6.2 log copies/mL

Question: And the “proliferation of HBV virus (FIG. 1)” value (SFC 500 μM, day 12 and 17 after the virus infection, P<0.05)?
Answer: significantly inhibited

Question: And the “DNA content of HBV” value (SFC 0.5 mM, day 17 after virus infection)?
Answer: 6.3 log copies/mL and 6.4 log copies/mL (2×)

Question: And the “DNA content of HBV” value (SFC 0.5 mM, day 22 after virus infection)?
Answer: 6.5 log copies/mL
